These are literature values, as cited in US20050249806A1, “Combination of proton pump inhibitor, buffering agent, and nonsteroidal anti-inflammatory drug” (Santarus, Inc., priority 2004, published 2005).

For the first data set the following is noted: pharmacokinetic half-life.
`CCc1cccc2c3c([nH]c12)C(CC)(CC(=O)O)OCC3` (stereo not shown) [etodolac]: the half-life entry is given as “about 7 hours”. Turning to `CC(C(=O)O)c1ccc(-c2ccccc2)c(F)c1` (stereo not shown) [flurbiprofen], the half-life result is reported as “about 6 hours”. With `O=C(c1ccccc1)c1ccc2n1CCC2C(=O)O` (stereo not shown) [ketorolac], the half-life was 8 to 9 h. As to `Cc1cccc(Nc2ccccc2C(=O)O)c1C` [mefenamic acid], the half-life result is given as “up to 4 hours”. As for `COc1ccc2cc(CCC(C)=O)ccc2c1` [nabumetone], the half-life is 22 to 30 h. Consider `O=C(O)CCc1nc(-c2ccccc2)c(-c2ccccc2)o1` [oxaprozin], for which the half-life was 42 to 50 h.

Settings in another data set: not given
For the compound `COc1ccc2[nH]c([S+]([O-])Cc3ncc(C)c(OC)c3C)nc2c1` (stereo not shown) [omeprazole], the water solubility result is reported as “poor water solubility”.

In general, half-life refers to the time needed for the level to fall by half in the phase considered.
